This is an account of results in publication PMC7007416 (Analytical and Bioanalytical Chemistry, 2019).

In data set [1] the test system is monolayer of Caco-2/HT29-MTX cells. Briefly: Lucifer yellow cell barrier integrity test. The data set is classed as in vitro ADME, human. As to conditions: 500 μg/mL apical, 30 min, after permeability experiments (day 21); average. As to the method: Barrier integrity was evaluated similar to the study of Hubatsch et al., and cells were cultured on a Transwell membrane for 21 days and subsequently stained for tight junction protein ZO-1 and the cell nuclei. For this, the cells were washed with PBS and fixed with 4% paraformaldehyde (w/v) for 15 min. Cells were permeabilized with 0.25% Triton X-100 (v/v) and blocked with 1% BSA (w/v). The cells were then incubated with the conjugated antibody ZO-1/TJP1-Alexa Fluor 594 for 45 min (10 μg/mL). Subsequently, DAPI was used to stain the nuclei for 10 min (5 μg/mL). Between incubations, cells were washed with PBS three times. Cells were mounted in a 120-μm spacer (Sigma-Aldrich) on a microscope slide (Thermo Scientific) with ProLong Diamond Antifade Mountant. Slides were then examined using a Zeiss (Jena, Germany) LSM 510 META confocal microscope. Samples were excited with 405-nm and 543-nm lasers, and the pinholes were in the range of 90–94 μm at a magnification of × 40. Cell layer integrity was also evaluated using the transport marker Lucifer yellow. […] Cell culture medium was collected from the apical and basolateral sides at t = 0 and t = 30 min and analysed for fluorescence at 458 nm/530 nm using a Bio-Tek Synergy HT Multi-Mode microplate reader. […]

Data set [2] has the same test system. As to the method: (§1) The human colonic adenocarcinoma Caco-2 cell line was obtained from the American Type Culture Collection (ATCC, Manassas, VA, USA), and the human colon adenocarcinoma mucus-secreting HT29-MTX-E12 cell line was obtained from the European Collection of Authenticated Cell Cultures (ECACC, Salisbury, UK). Caco-2 cells were used at passage numbers 29–40, and HT29-MTX-E12 cells were used at passage numbers 52–70 for all experiments. Cells were cultured in DMEM containing 10% FBS, 1% NEAA and 1% penicillin-streptomycin and maintained at 37 °C in a 5% CO2-humidified air atmosphere and subcultured every 2 days to 3 days similar to the study of Abdelkhaliq et al.. For permeability experiments, cells were seeded at a density of 40,000 cells/cm^2 on a polycarbonate Transwell insert (area 0.6 cm^2, 0.4 μm pore size; Millipore) as follows: Caco-2 and HT29-MTX-E12 cells were seeded in a 3:1 ratio on the apical side of the Transwell system and allowed to attach for 24 h. After 24 h, cell culture medium was refreshed every 2–3 days and Transwell systems were used for permeability experiments following 21 days of culturing.

The test system of data set [3] is Caco-2 and HT29-MTX-E12 cells (ratio 3:1). The method, then:
With the WST-1 assay, mitochondrial activity of the cell is measured by the conversion of WST-1 into formazan dye by mitochondrial dehydrogenase enzymes. The assay is performed as follows: Caco-2 and HT29-MTX-E12 cells (ratio 3:1) were seeded in Greiner Bio-One (Alphen aan den Rijn, The Netherlands) flat-bottom 96-well plates at a concentration of 1 × 10^5 cells/mL in cell culture medium (100 μL/well). Plates were incubated for 24 h at 37 °C under 5% CO2. […] Then, the exposure medium containing (dilutions of) the compounds of interest was discarded and the cells were washed with pre-warmed HBSS. Subsequently, WST-1 reagent (in cell culture medium without phenol red) was added to the cells (1:10, 100 μL/well). After 1.5 h of incubation at 37 °C, the absorbance of each well was measured at 440 nm using a Bio-Tek (Winooski, VT, USA) Synergy HT Multi-Mode microplate reader.

The nature of data set [4]: Permeability in static Transwell system. As to conditions: human. The method, then: as §1
(§2) HEPES is added because the experiments with the flow-through Transwell systems are performed outside of a CO2-controlled incubator, and for the sake of comparability, it is added to the static Transwell systems as well. […]

Data set [5] has as its system monolayer of Caco-2/HT29-MTX cells. Briefly: Permeability in dynamic flow-through Transwell system, offline analysis. To be noted: dynamic vs static, ergotamin(in)e 10 μg/mL. As to the method:
as §1, §2

Data set [6] shares this test system. Briefly: Permeability in static Transwell system. As to conditions: static experiments, ergotamin(in)e 10 μg/mL apical. As to the method: as §1, §2

In the case of Lucifer yellow, in data set [1], the “Lucifer yellow permeability (percentage of the apical concentration)” value is 0.18% ± 0.06.

Consider `CN1C2CCCC1CC(NC(=O)c1nn(C)c3ccccc13)C2` (centres unmarked) [granisetron, Granisetron], for which the “cell-induced product formation on the basolateral side” value in data set [2] is “no cell-induced products were detected”. The “translocated across the in vitro intestinal barrier, cumulative % of the apical concentration” value in data set [2] (human, 3 h) came out at 13.1%. The non-toxic concentration in data set [3] (human, 24 h) amounted to 10 µg/mL. In data set [4], `CN1C[C@H](C(=O)N[C@]2(C)O[C@@]3(O)[C@@H]4CCCN4C(=O)[C@H](Cc4ccccc4)N3C2=O)C=C2c3cccc4[nH]cc(c34)C[C@H]21` [ergotamine] yielded a Papp at 180 min, 10 μg/mL of 8.6 ± 1.2 ×10⁻⁶ cm/s. `CN1C[C@@H](C(=O)N[C@]2(C)O[C@@]3(O)[C@@H]4CCCN4C(=O)[C@H](Cc4ccccc4)N3C2=O)C=C2c3cccc4[nH]cc(c34)C[C@H]21` [ergotaminine]: the “permeability, times lower in the dynamic experiments compared to the static experiments” value in data set [5] was 5 times. In addition, the apparent permeability coefficient in data set [6] was 50.2 ± 5.8 × 10^−6 cm/s. For the molecule Triton X-100, the cell viability in data set [3] (positive control, Triton X-100 0.25% v/v, percentage of negative control) is recorded as 0.4% ± 0.3.
